From the supplement of paper PMC11451515

Legend:
Conditions in all cases: 48 h
NOMO1 [1] = assay: AUC of viability dose-response curve (% viability x log10 dose units); higher = less sensitive
Procedure, shortened: (§1)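 Viability of medium-adapted leukemia cells was measured by CellTiter-Glo One luminescence after 48 h at 37°C with library compounds in DMSO. Doses were 11 threefold steps from 47 μM to 0.79 nM, in 1536-well plates at 500 or 1000 cells/well. Signals were normalised per plate to DMSO and cell-free wells and fitted with a four-parameter log-logistic model on log10 dose. Area under the curve was integrated by trapezoidal rule, with curves exceeding full viability scaled and failed quality-control curves removed.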

SEM cells [2] = assay: as above
Procedure, shortened: as §1

P12-Ichikawa [3] = assay: as above
Procedure, shortened: as §1

NOMO1 [4] = assay: cell viability relative to DMSO control; higher = less cytotoxic
Procedure, shortened: (§2)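 NOMO1 or SEM (500 cells/well) or P12-Ichikawa (1000 cells/well) leukemia cells were adapted for at least four passages in each medium. They were seeded in 1536-well plates (5 μl) and pin-dosed with library compounds in DMSO over an 11-point threefold series, 47 μM to 0.79 nM. CellTiter-Glo One luminescence was read after 48 h at 37°C. Viability is the per-plate percentage relative to DMSO wells, with cell-free wells as background.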

SEM cells [5] = assay: as above
Procedure, shortened: as §2

P12-Ichikawa [6] = assay: as above
Procedure, shortened: as §2

Nc1ncnc2c1ncn2[C@@H]1O[C@@H](CO)[C@H](O)[C@@H]1O
AUC of viability dose-response curve
Conditions | NOMO1 [1] | P12-Ichikawa [3] | SEM cells [2]
HPLM + 10% dialyzed FBS | 454 | 464 | 467
RPMI 5 mM glucose + 10% FBS | 467 | 477 | 466
RPMI 5 mM glucose + 10% dialyzed FBS | 441 | 472 | 449

cell viability [%]
Conditions | NOMO1 [4] | SEM cells [5]
HPLM + 10% dialyzed FBS, 0.000781 µM | 94.2 | 93.8
HPLM + 10% dialyzed FBS, 0.00234 µM | 125 | 90.1
HPLM + 10% dialyzed FBS, 0.00702 µM | 117 | 111
HPLM + 10% dialyzed FBS, 0.0211 µM | 140 | 119
HPLM + 10% dialyzed FBS, 0.0632 µM | 142 | 124
HPLM + 10% dialyzed FBS, 0.19 µM | 134 | 117
HPLM + 10% dialyzed FBS, 0.569 µM | 144 | 109
HPLM + 10% dialyzed FBS, 1.71 µM | 156 | 109
HPLM + 10% dialyzed FBS, 5.12 µM | 139 | 115
HPLM + 10% dialyzed FBS, 15.4 µM | 140 | 118
HPLM + 10% dialyzed FBS, 46.1 µM | 136 | 62.4
RPMI 5 mM glucose + 10% dialyzed FBS, 0.000781 µM | 122 | 106
RPMI 5 mM glucose + 10% dialyzed FBS, 0.00234 µM | 121 | 105
RPMI 5 mM glucose + 10% dialyzed FBS, 0.00702 µM | 122 | 116
RPMI 5 mM glucose + 10% dialyzed FBS, 0.0211 µM | 127 | 112
RPMI 5 mM glucose + 10% dialyzed FBS, 0.0632 µM | 135 | 130
RPMI 5 mM glucose + 10% dialyzed FBS, 0.19 µM | 136 | 144
RPMI 5 mM glucose + 10% dialyzed FBS, 0.569 µM | 133 | 121
RPMI 5 mM glucose + 10% dialyzed FBS, 1.71 µM | 135 | 123
RPMI 5 mM glucose + 10% dialyzed FBS, 5.12 µM | 127 | 123
RPMI 5 mM glucose + 10% dialyzed FBS, 15.4 µM | 155 | 84.9
RPMI 5 mM glucose + 10% dialyzed FBS, 46.1 µM | 137 | 50.2

Cc1onc(-c2ccccc2Cl)c1C(=O)N[C@@H]1C(=O)N2[C@@H]1SC(C)(C)[C@@H]2C(=O)[O-]
AUC of viability dose-response curve
Conditions | NOMO1 [1] | P12-Ichikawa [3] | SEM cells [2]
HPLM + 10% dialyzed FBS | 455 | 469 | 402
RPMI 5 mM glucose + 10% FBS | 437 | 451 | 435
RPMI 5 mM glucose + 10% dialyzed FBS | 424 | 456 | 464

cell viability [%]
Conditions | NOMO1 [4] | P12-Ichikawa [6] | SEM cells [5]
HPLM + 10% dialyzed FBS, 0.000781 µM | 104 | 112 | 82.3
HPLM + 10% dialyzed FBS, 0.00234 µM | 104 | 116 | 77.1
HPLM + 10% dialyzed FBS, 0.00702 µM | 123 | 113 | 89.4
HPLM + 10% dialyzed FBS, 0.0211 µM | 116 | 116 | 97.7
HPLM + 10% dialyzed FBS, 0.0632 µM | 98.9 | 113 | 72
HPLM + 10% dialyzed FBS, 0.19 µM | 103 | 113 | 88.2
HPLM + 10% dialyzed FBS, 0.569 µM | 105 | 113 | 83.5
HPLM + 10% dialyzed FBS, 1.71 µM | 113 | 111 | 81.7
HPLM + 10% dialyzed FBS, 5.12 µM | 92.8 | 110 | 80.2
HPLM + 10% dialyzed FBS, 15.4 µM | 105 | 105 | 84.8
HPLM + 10% dialyzed FBS, 46.1 µM | 84.7 | 106 | 90
RPMI 5 mM glucose + 10% FBS, 0.000781 µM | 112 | 119 | 117
RPMI 5 mM glucose + 10% FBS, 0.00234 µM | 119 | 117 | 110
RPMI 5 mM glucose + 10% FBS, 0.00702 µM | 134 | 113 | 117
RPMI 5 mM glucose + 10% FBS, 0.0211 µM | 110 | 111 | 109
RPMI 5 mM glucose + 10% FBS, 0.0632 µM | 104 | 116 | 101
RPMI 5 mM glucose + 10% FBS, 0.19 µM | 115 | 114 | 102
RPMI 5 mM glucose + 10% FBS, 0.569 µM | 115 | 116 | 83.8
RPMI 5 mM glucose + 10% FBS, 1.71 µM | 107 | 110 | 116
RPMI 5 mM glucose + 10% FBS, 5.12 µM | 99.5 | 117 | 110
RPMI 5 mM glucose + 10% FBS, 15.4 µM | 97.9 | 101 | 99.4
RPMI 5 mM glucose + 10% FBS, 46.1 µM | 94.3 | 101 | 85.7
RPMI 5 mM glucose + 10% dialyzed FBS, 0.000781 µM | 117 | 103 | 102
RPMI 5 mM glucose + 10% dialyzed FBS, 0.00234 µM | 124 | 111 | 110
RPMI 5 mM glucose + 10% dialyzed FBS, 0.00702 µM | 123 | 115 | 119
RPMI 5 mM glucose + 10% dialyzed FBS, 0.0211 µM | 103 | 119 | 115
RPMI 5 mM glucose + 10% dialyzed FBS, 0.0632 µM | 111 | 126 | 107
RPMI 5 mM glucose + 10% dialyzed FBS, 0.19 µM | 103 | 109 | 115
RPMI 5 mM glucose + 10% dialyzed FBS, 0.569 µM | 102 | 120 | 96.3
RPMI 5 mM glucose + 10% dialyzed FBS, 1.71 µM | 108 | 105 | 113
RPMI 5 mM glucose + 10% dialyzed FBS, 5.12 µM | 110 | 112 | 99.9
RPMI 5 mM glucose + 10% dialyzed FBS, 15.4 µM | 84.1 | 98.4 | 104
RPMI 5 mM glucose + 10% dialyzed FBS, 46.1 µM | 96.3 | 98.1 | 108

O=c1[nH]c(=O)n([C@H]2C[C@H](O)[C@@H](CO)O2)cc1/C=C/Br
AUC of viability dose-response curve
Conditions | NOMO1 [1] | P12-Ichikawa [3] | SEM cells [2]
HPLM + 10% dialyzed FBS | 425 | 357 | 436
RPMI 5 mM glucose + 10% FBS | 456 | 472 | 460
RPMI 5 mM glucose + 10% dialyzed FBS | 454 | 477 | 469

cell viability [%]
Conditions | NOMO1 [4] | P12-Ichikawa [6] | SEM cells [5]
HPLM + 10% dialyzed FBS, 0.000781 µM | 89.1 | 103 | 92.7
HPLM + 10% dialyzed FBS, 0.00234 µM | 108 | 126 | 116
HPLM + 10% dialyzed FBS, 0.00702 µM | 120 | 105 | 101
HPLM + 10% dialyzed FBS, 0.0211 µM | 108 | 115 | 120
HPLM + 10% dialyzed FBS, 0.0632 µM | 123 | 102 | 119
HPLM + 10% dialyzed FBS, 0.19 µM | 108 | 61.2 | 119
HPLM + 10% dialyzed FBS, 0.569 µM | 96.2 | 60.8 | 114
HPLM + 10% dialyzed FBS, 1.71 µM | 96.5 | 70 | 100
HPLM + 10% dialyzed FBS, 5.12 µM | 79.4 | 75.8 | 86.4
HPLM + 10% dialyzed FBS, 15.4 µM | 72.4 | 61.4 | 78.7
HPLM + 10% dialyzed FBS, 46.1 µM | 55.4 | 47.8 | 60.2
RPMI 5 mM glucose + 10% FBS, 0.000781 µM | 93.9 | 97.6 | 101
RPMI 5 mM glucose + 10% FBS, 0.00234 µM | 111 | 107 | 121
RPMI 5 mM glucose + 10% FBS, 0.00702 µM | 97.7 | 103 | 114
RPMI 5 mM glucose + 10% FBS, 0.0211 µM | 106 | 103 | 109
RPMI 5 mM glucose + 10% FBS, 0.0632 µM | 114 | 105 | 123
RPMI 5 mM glucose + 10% FBS, 0.19 µM | 101 | 110 | 105
RPMI 5 mM glucose + 10% FBS, 0.569 µM | 113 | 108 | 119
RPMI 5 mM glucose + 10% FBS, 1.71 µM | 117 | 106 | 117
RPMI 5 mM glucose + 10% FBS, 5.12 µM | 106 | 107 | 115
RPMI 5 mM glucose + 10% FBS, 15.4 µM | 120 | 110 | 119
RPMI 5 mM glucose + 10% FBS, 46.1 µM | 110 | 106 | 120
RPMI 5 mM glucose + 10% dialyzed FBS, 0.000781 µM | 123 | 92.6 | 90.8
RPMI 5 mM glucose + 10% dialyzed FBS, 0.00234 µM | 110 | 104 | 117
RPMI 5 mM glucose + 10% dialyzed FBS, 0.00702 µM | 102 | 109 | 103
RPMI 5 mM glucose + 10% dialyzed FBS, 0.0211 µM | 122 | 118 | 98.6
RPMI 5 mM glucose + 10% dialyzed FBS, 0.0632 µM | 119 | 112 | 106
RPMI 5 mM glucose + 10% dialyzed FBS, 0.19 µM | 114 | 106 | 112
RPMI 5 mM glucose + 10% dialyzed FBS, 0.569 µM | 107 | 103 | 116
RPMI 5 mM glucose + 10% dialyzed FBS, 1.71 µM | 121 | 108 | 116
RPMI 5 mM glucose + 10% dialyzed FBS, 5.12 µM | 134 | 108 | 111
RPMI 5 mM glucose + 10% dialyzed FBS, 15.4 µM | 130 | 102 | 102
RPMI 5 mM glucose + 10% dialyzed FBS, 46.1 µM | 105 | 100 | 82.2
